Data: patent US6476019B1, “Spirocyclic ligands for sigma receptors, and libraries and methods of use thereof” (Sepracor Inc., priority 1999, dated 2002)
Values belong to the molecule of their own block, whether it stands above or below them.

Columns and labels:
[1] = system: Male Wistar rats; assay: MK-801-Induced Psychosis Model; assay type: in vivo, rat; conditions: rat, 1 mg/kg i.p.; MK-801 0.3 mg/kg i.p.
Excerpt: The non-competitive NMDA receptor antagonist MK-801 induces stereotypies and hyperactivity in rodents (1) by interacting with the NMDA receptor-associated ion channel. Phencyclidine, which also interferes with the NMDA receptor, produces psychotic effects in humans similar in many respects to schizophrenia. […] Therefore the MK-801-induced activity and stereotypies in rats may represent an appropriate animal model to test the potential efficacy of antipsychotic drugs.
Male Wistar rats (Iffa Crédo, St Germain/l'Arbresle, France), weight 250-300 g were housed 2 per cage on a 12 h/12 h light dark cycle (lights on at 7.00 a.m.) at a room temperature of 21±2° C. for a minimum of 5 days before testing. All animals had access to commercial food and tap water ad libitum.
On the day of the experiment, rats were treated with either reference drug vehicle, the reference drugs haloperidol or clozapine the test compound vehicle or test compounds. After administration, the rats were returned to their home cages for 15 minutes. […] The remaining rats treated with placebo received a second injection of vehicle. The standard injection volume was 2.0 ml/kg. After 10 minutes in the home cages, rats were transferred to the test box (Plexiglas, 29×12×12 cm), 5 minutes before the assessment for accomodation. The test box was cleaned with 70% ethanol before each assessment. Stereotypies, defined as wall-contacts with the snout, and locomotion, defined as turn-rounds of 180°, were assessed during 5 minute periods.

[2] = target: human serotonin 5-HT2B (Homo sapiens, UniProt P41595); assay: Behavioral receptor assays: 5-HT2B; assay type: binding; conditions: read-out: Receptors (IC50) 5-HT2B
Sequence of human serotonin 5-HT2B (P41595 whole entry): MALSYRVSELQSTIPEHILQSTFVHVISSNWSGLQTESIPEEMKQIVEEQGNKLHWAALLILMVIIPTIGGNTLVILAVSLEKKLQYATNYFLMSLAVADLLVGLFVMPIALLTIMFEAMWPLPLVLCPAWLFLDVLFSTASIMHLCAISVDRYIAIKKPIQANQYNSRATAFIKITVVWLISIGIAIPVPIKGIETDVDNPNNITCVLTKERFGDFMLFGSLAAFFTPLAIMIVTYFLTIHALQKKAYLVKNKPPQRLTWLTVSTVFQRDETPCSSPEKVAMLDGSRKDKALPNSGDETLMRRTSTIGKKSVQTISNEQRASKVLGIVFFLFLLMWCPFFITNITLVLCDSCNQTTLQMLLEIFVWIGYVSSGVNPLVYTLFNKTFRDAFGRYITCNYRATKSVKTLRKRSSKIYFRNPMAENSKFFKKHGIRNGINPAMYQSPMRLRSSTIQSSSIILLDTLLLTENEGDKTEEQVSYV
Method: (§1) Various compounds of the present invention (19, 31, and 32) were evaluated in a group of assays based on mammalian cellular receptors associated with behavior. The group consisted of assays base on human dopamine D1, D2L, D3, D4.2, D4.4, D4.7, and D5 receptors, and the transporter; human serotonin 5-HT1A, 5-HT1B, 5-HT1D, 5-HT2A, 5-HT2B, 5-HT2C, 5-HT3, 5-HT5A, 5-HT6, and 5-HT7 receptors, and the human serotonin transporter; guinea pig 5-HT4 and sigma-1 receptors; rat sigma-2 and muscarinic receptors; and human NK1-3 receptors. The following table presents a subset of the results of these assays.

[3] = system: Male rats; assay: Elevated plus maze test (anxiolytic effects); assay type: in vivo; conditions: rat, doses 1 mg/kg and 5 mg/kg
Excerpt: In the present study, 32 was investigated on measures of anxiety in an elevated plus-maze test in the rat. In this test, an anxiolytic effect is defined as an increase in the percentage of total entries made onto the open arms and an increase in the percentage of time spent on the open arms of the elevated plus-maze. Anxiogenic drugs reduce both of these measures.
Male rats (Iffa Crédo, St Germain/l'Arbresle, France), weight 220−320 g ate the beginning of the experiment were housed 2 per cage on a 12 h/12 h light dark cycle (lights on at 7.00 a.m.) at a room temperature of 21±2° C. for a minimum of 5 days before testing. All animals had access to commercial food and tap water ad libitum.
The elevated plus maze test consists of four arms connected by a central square, the arms are all horizontal and at 90° […]. angle from each other making the shape of a plus sign. The maze is raised to a height of 50 cm from the ground. […] These arms are therefore referred to as the enclosed arms, respectively.
Each test was started by placing the rat at the intersect of the maze arms facing into one of the enclosed arms. The rat had free access to all 4 arms for the period of 5 min. The number and duration of entries into each arm during this time were scored manually.
Undruged rats typically spend 30-60 seconds on the open arms and about 3 minutes on the closed arms. […]

[4] = target: human serotonin 5-HT2A (Homo sapiens, UniProt P28223); assay: Behavioral receptor assays: 5-HT2A; assay type: binding; conditions: read-out: Receptors (IC50) 5-HT2A
Sequence of human serotonin 5-HT2A (P28223 whole entry): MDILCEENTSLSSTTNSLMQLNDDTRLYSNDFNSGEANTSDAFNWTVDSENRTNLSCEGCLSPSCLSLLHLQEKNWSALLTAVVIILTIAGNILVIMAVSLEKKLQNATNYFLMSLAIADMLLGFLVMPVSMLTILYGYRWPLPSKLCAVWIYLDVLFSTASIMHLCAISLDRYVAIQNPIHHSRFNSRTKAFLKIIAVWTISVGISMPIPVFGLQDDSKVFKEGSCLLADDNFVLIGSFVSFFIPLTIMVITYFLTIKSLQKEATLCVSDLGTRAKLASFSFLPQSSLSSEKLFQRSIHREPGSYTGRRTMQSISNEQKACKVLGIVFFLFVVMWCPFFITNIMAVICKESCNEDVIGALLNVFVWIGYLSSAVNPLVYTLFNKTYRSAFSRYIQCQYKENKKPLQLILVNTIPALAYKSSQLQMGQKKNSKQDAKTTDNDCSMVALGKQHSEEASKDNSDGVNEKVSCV
Method: as §1

[5] = system: Rat GABAA Chloride Channel; assay: Additional receptor assay; assay type: binding; conditions: 10 μM
Method: (§2) Results of Additional Receptor Assays Performed on Compound 31 at a Concentration of 10 μM

[6] = target: Rat GABAB (Rattus norvegicus, UniProt Q9Z0U4); assay: Additional receptor assay; assay type: binding; conditions: 10 μM
Sequence of Rat GABAB (Q9Z0U4 17-960 limits assumed): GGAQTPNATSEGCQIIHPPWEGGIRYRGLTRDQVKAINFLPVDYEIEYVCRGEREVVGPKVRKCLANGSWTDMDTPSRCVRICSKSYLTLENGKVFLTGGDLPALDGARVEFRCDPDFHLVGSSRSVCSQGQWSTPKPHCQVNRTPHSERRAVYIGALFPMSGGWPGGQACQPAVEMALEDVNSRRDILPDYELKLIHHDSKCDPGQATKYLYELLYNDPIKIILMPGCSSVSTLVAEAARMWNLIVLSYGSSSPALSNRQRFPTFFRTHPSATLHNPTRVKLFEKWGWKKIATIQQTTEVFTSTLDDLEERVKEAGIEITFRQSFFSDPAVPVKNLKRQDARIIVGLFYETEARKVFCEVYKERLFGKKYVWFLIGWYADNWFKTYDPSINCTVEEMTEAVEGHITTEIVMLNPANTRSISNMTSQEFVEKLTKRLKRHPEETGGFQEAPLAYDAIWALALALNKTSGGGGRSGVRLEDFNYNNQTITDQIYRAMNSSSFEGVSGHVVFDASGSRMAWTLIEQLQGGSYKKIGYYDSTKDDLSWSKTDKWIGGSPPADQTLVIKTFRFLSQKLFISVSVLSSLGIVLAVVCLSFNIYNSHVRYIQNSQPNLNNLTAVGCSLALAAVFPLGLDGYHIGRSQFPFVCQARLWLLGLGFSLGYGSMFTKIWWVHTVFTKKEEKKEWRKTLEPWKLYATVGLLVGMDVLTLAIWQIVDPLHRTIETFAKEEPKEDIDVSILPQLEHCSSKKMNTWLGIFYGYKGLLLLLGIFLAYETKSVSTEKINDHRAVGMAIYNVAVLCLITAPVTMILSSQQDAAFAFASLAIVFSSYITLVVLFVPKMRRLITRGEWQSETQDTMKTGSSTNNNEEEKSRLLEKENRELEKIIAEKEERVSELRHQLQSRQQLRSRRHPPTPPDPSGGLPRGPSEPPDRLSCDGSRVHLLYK
Sequence of Rat GABAB (O88871 41-940 partner): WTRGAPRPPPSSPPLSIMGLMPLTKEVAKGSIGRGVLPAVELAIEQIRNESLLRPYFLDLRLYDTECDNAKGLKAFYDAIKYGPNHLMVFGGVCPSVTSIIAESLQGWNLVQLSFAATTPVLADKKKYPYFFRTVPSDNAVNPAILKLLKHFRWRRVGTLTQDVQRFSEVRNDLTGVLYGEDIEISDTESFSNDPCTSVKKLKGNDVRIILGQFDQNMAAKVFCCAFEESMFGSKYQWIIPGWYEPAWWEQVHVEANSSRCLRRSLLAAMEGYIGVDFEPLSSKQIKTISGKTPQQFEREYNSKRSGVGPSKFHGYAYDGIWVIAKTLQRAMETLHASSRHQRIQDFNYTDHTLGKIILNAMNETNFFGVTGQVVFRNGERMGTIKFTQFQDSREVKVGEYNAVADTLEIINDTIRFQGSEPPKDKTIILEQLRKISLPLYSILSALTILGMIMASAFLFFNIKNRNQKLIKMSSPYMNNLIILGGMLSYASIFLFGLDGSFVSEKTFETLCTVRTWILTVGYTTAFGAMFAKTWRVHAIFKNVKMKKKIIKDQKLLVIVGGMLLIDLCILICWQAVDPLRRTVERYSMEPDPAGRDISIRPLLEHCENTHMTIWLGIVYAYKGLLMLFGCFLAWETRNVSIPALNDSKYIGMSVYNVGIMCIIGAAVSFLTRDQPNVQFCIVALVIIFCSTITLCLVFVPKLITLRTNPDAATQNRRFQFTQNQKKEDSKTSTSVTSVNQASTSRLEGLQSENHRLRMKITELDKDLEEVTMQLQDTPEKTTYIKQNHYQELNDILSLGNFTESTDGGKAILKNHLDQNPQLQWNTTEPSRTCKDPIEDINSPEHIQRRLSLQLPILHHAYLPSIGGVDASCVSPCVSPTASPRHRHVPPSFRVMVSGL
Method: as §2

[7] = system: Rat Glutamate, NMDA (Agonist); assay: Additional receptor assay; assay type: binding; conditions: 10 μM
Method: as §2

[8] = target: Rat GABAA Benzodiazepine (Peripheral) (Rattus norvegicus, UniProt P16257); assay: Additional receptor assay; assay type: binding
Method: as §2

[9] = system: Rat GABAA Agonist Site; assay: Additional receptor assay; assay type: binding; conditions: 10 μM
Method: as §2

[10] = system: Rat GABAA Benzodiazepine (Central); assay: Additional receptor assay; assay type: binding; conditions: 10 μM
Method: as §2

[11] = target: Rat Glutamate, NMDA (Glycine) (Rattus norvegicus, UniProt P35439); assay: Additional receptor assay; assay type: binding
Method: as §2

[12] = system: Rat Glutamate, NMDA (Polyamine); assay: Additional receptor assay; assay type: binding; conditions: 10 μM
Method: as §2

[13] = system: Rat Glutamate, NMDA (Phencyclidine); assay: Additional receptor assay; assay type: binding; conditions: 10 μM
Method: as §2

[14] = target: Human Adrenergic β2 (Homo sapiens, UniProt P07550); assay: Additional receptor assay; assay type: binding
Sequence of Human Adrenergic β2 (P07550 whole entry): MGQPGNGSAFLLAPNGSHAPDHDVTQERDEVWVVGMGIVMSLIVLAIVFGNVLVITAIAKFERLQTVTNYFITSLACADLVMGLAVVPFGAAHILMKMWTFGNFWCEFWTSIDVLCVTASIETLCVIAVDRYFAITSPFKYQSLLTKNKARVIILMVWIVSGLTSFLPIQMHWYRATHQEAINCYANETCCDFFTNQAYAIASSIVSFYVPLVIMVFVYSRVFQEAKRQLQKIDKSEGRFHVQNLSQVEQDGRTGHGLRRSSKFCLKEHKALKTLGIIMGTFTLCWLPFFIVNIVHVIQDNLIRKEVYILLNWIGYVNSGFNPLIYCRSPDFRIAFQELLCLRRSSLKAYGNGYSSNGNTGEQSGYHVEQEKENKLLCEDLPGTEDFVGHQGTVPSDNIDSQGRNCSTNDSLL
Method: as §2

[15] = target: Human Adrenergic β3 (Homo sapiens, UniProt P13945); assay: Additional receptor assay; assay type: binding
Sequence of Human Adrenergic β3 (P13945 whole entry): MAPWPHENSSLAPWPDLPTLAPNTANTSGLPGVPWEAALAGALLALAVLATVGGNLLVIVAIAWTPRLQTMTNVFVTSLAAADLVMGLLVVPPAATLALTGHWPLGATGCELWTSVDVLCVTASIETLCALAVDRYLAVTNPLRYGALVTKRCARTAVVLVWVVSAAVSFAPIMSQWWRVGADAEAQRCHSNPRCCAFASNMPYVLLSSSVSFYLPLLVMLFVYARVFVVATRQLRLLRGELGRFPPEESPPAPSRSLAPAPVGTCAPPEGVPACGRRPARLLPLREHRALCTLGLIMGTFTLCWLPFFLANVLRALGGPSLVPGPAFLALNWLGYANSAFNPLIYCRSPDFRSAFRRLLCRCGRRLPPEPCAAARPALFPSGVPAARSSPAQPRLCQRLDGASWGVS
Method: as §2

[16] = system: Rat GABAA Transporter; assay: Additional receptor assay; assay type: binding; conditions: 10 μM
Method: as §2

[17] = target: Human Adrenergic β1 (Homo sapiens, UniProt P08588); assay: Additional receptor assay; assay type: binding
Sequence of Human Adrenergic β1 (P08588 whole entry): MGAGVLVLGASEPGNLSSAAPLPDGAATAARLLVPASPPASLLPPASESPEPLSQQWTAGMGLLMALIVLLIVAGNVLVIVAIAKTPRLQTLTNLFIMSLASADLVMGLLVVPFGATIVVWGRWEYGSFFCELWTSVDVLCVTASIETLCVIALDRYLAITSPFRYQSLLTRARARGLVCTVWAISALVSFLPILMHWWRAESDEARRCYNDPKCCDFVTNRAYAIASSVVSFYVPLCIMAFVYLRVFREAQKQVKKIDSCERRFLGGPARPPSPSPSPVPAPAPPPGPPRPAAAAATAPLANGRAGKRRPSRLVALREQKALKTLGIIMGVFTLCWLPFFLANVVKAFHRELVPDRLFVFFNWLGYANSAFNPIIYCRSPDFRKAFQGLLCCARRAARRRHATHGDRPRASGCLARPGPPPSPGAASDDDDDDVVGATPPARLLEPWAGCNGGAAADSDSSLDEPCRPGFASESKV
Method: as §2

[18] = target: Human Orphanin (ORL1) (Homo sapiens, UniProt P41146); assay: Additional receptor assay; assay type: binding
Sequence of Human Orphanin (ORL1) (P41146 whole entry): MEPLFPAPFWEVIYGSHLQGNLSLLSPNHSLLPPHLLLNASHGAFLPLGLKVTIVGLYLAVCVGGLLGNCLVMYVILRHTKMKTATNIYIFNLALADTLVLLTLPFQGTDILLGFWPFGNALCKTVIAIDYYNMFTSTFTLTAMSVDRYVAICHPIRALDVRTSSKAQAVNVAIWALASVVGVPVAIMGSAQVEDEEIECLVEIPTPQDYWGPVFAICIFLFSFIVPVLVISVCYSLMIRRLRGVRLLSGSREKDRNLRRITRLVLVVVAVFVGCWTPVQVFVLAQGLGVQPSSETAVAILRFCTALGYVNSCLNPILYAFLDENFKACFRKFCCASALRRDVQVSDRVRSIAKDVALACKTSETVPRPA
Method: as §2

[19] = system: Rat Adrenergic α1; assay: Additional receptor assay; assay type: binding; conditions: 10 μM
Method: as §2

[20] = target: Human Adrenergic α2C (Homo sapiens, UniProt P18825); assay: Additional receptor assay; assay type: binding
Sequence of Human Adrenergic α2C (P18825 whole entry): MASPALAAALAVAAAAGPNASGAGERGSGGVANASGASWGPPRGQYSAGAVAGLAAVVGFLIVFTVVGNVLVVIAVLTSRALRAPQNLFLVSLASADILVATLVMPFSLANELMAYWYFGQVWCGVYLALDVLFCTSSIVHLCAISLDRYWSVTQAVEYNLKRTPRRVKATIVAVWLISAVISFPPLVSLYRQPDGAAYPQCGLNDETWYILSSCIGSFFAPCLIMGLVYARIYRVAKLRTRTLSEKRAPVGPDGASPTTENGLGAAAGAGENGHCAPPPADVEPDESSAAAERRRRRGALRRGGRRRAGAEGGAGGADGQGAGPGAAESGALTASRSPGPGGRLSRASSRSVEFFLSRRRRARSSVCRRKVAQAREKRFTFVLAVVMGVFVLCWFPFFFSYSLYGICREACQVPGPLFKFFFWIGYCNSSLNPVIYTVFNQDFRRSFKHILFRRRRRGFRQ
Method: as §2

[21] = target: Human Adrenergic α2A (Homo sapiens, UniProt P08913); assay: Additional receptor assay; assay type: binding
Method: as §2

IC50 [2]: < 1 µM | IC50 [4]: > 1 µM
Compound: OC1CCC2(CCN(Cc3ccc(F)cc3)CC2)Nc2ccccc21 (racemic) [Compound 32, 1′-(4-fluorobenzyl)-3,4-dihydrospiro[5H-1-benzazepine-2(1H)-4′-piperidin]-5ol]
MK-801-induced locomotion [1]: caused a reduction | MK-801-induced stereotypies [1]: caused a reduction | anxiolytic effect in elevated plus-maze [3]: tendency towards an anxiolytic effects

% Inhibition Rat GABAA Chloride Channel [5]: No Inhibition | % Inhibition Rat GABAB [6]: No Inhibition | % Inhibition Rat Glutamate, NMDA (Agonist) [7]: No Inhibition | inhibition at 10 µM [8]: 16% | % Inhibition Rat GABAA Agonist Site [9]: 13% | % Inhibition Rat GABAA Benzodiazepine (Central) [10]: 6% | inhibition at 10 µM [11]: 2% | % Inhibition Rat Glutamate, NMDA (Polyamine) [12]: 12% | % Inhibition Rat Glutamate, NMDA (Phencyclidine) [13]: No Inhibition | inhibition at 10 µM [14]: 15% | inhibition at 10 µM [15]: 19% | % Inhibition Rat GABAA Transporter [16]: No Inhibition | inhibition at 10 µM [17]: 3% | inhibition at 10 µM [18]: 12% | % Inhibition Rat Adrenergic α1 [19]: 21% | inhibition at 10 µM [20]: 2% | inhibition at 10 µM [21]: 34%
Compound: O=C1CCC2(CCN(Cc3ccc(F)cc3)CC2)Nc2ccccc21 [Compound 31, 1′-(4-fluorobenzyl)-3,4-dihydrospiro[5H-1-benzazepine-2(1H)-4′-piperidin]-5-one]
